# Measured values: PubChem BioAssay AID1963867 (Molecular Pharmacology Branch, DTP, NCI, 2024)
# pIC50: −log10 of the molar value.
# Test system: KRAS-mutant PDC tumor spheroid with HUVEC/MSC, viability
# Assay: Anticancer human tumor 327498-153-R-J2-PDC patient-derived uterine carcinosarcoma cell line growth inhibition [KRAS2]
# Conditions: for pIC50: curve of first compound; for viability, T/C: stronger effect = lower value
# Text: Multicellular complex tumor spheroid response to RAS pathway inhibitors in combination with a targeted agents in patient-derived cell lines with oncogenic KRAS variants from multiple cancer types
# A high-throughput screen of multi-cell type tumor spheroids was designed to identify active combinations of targeted small molecules and KRAS pathway inhibitors. Complex spheroids include a stromal component modeled by human endothelial cells (HUVEC) and fibroblasts modeled by human mesenchymal stem cells (MSCs). The concentration ranges selected for each drug and investigational agent were based upon clinically achievable concentrations if the clinical Cmax of the agent was known.
# Compounds. The drugs and investigational agents: BI-3406 (NSC825286), BAY-293 (NSC824723), batoprotafib (TNO155; NSC825523), sotorasib (AMG 510; NSC818433), MRTX1257 (NSC819558), elimusertib (BAY 1895344; NSC800525), molibresib (GSK525762; NSC774829), temuterkib (LY3214996; NSC803410), venetoclax (NSC766270), alisertib (NSC759677), olaparib (NSC753686), talazoparib (NSC767125), erdafitinib (NSC781556), ipatasertib (NSC767898), cabozantinib (NSC761068), nintedanib (NSC756659), abemaciclib (NSC768073), docetaxel (NSC628503), trametinib (NSC758246), and sapanisertib (NSC764658) were obtained from the National Cancer Institute (NCI) Developmental Therapeutics Program Chemical Repository. The FDA-approved anticancer drug set is available from the Developmental Therapeutics Program. […] The stock solutions were prepared in dimethyl sulfoxide (DMSO, Sigma-Aldrich, St. Louis, MO, cat. D2650) at 800-fold the tested concentration and stored at -70 degrees C prior to their use. All drugs and investigational agents were tested over a range starting from a high concentration at or near the clinical Cmax and decreasing in half-log increments. If the clinical Cmax for an agent had not been determined, the highest concentration tested was 10 microM.
# Cell Culture. All cells were maintained in an incubator at 37 degrees C and 5% CO2 with 95% humidity. The PDC lines were cultured according to standard operating procedures established by the NCI PDMR (https://pdmr.cancer.gov/sops/default.htm). Briefly, all PDCs were thawed and cultured in Matrigel-coated flasks prepared with a working solution of 1X Ham's F-12 nutrient mix, without supplementation (Invitrogen, Waltham, MA, cat. 11765054), 100 U/mL penicillin-streptomycin (Invitrogen, cat. 15140122), and 2.5% Matrigel (Corning Inc., Corning, NY, cat. 354248) for the first three passages. All PDCs were cultured in complete DMEM/F-12 media containing advanced DMEM/F-12 (Invitrogen, cat. 12634028), 4.9% defined fetal bovine serum, heat inactivated (HyClone Laboratories Inc., Logan, UT, cat. SH30070.03HI), 389 ng/mL hydrocortisone (Sigma-Aldrich, cat. H4001), 9.7 ng/mL human EGF recombinant protein (Invitrogen, cat. PHG0313), 23.4 microg/mL adenine (Sigma-Aldrich, cat. A2786), 97.3 U/mL penicillin-streptomycin (Invitrogen, cat. 15140122), 1.9 mM L-glutamine (Invitrogen, cat. 25030081), and 9.7 microM Y-27632 dihydrochloride (Tocris Bioscience, Bristol, United Kingdom, cat. 1254). The PDCs were cultured in complete DMEM/F12 media without 9.7 microM Y-27632 dihydrochloride for at least two passages prior to the screen. The established cell line HOP-62 was cultured in RPMI 1640 medium, HEPES (Invitrogen, cat. 22400105) with 10% defined fetal bovine serum (HyClone Laboratories Inc., cat. SH30070.03) and 2 mM L-glutamine (Invitrogen, cat. 25030081). The pooled donor HUVEC were cultured in endothelial cell growth medium 2 (PromoCell, Heidelberg, Germany, cat. C-22011) and the hMSC were cultured in mesenchymal stem cell growth medium 2 (PromoCell, cat. C-28009). For all experiments, HUVEC and hMSC were used at passages </=5, while the malignant cell lines were used at passages </=15. […]
# [1] = second compound 0.1 µM, first compound 0.0316 µM
# [2] = second compound 0.1 µM, first compound 0.1 µM
# [3] = second compound 0.316 µM, first compound 0.0316 µM
# [4] = second compound 0.316 µM, first compound 0.1 µM
# [5] = second compound 1 µM, first compound 0.0316 µM
# [6] = second compound 1 µM, first compound 0.1 µM
# [7] = second compound 3.16 µM, first compound 0.0316 µM
# [8] = second compound 3.16 µM, first compound 0.1 µM
# [9] = second compound 10 µM, first compound 0.0316 µM
# [10] = second compound 10 µM, first compound 0.1 µM
# [11] = second compound 0.1 µM, first compound 0.316 µM
# [12] = second compound 0.1 µM, first compound 1 µM
# [13] = second compound 0.1 µM, first compound 3.16 µM
# [14] = second compound 0.1 µM, first compound 10 µM
# [15] = second compound 0.316 µM, first compound 0.316 µM
# [16] = second compound 0.316 µM, first compound 1 µM
# [17] = second compound 0.316 µM, first compound 3.16 µM
# [18] = second compound 0.316 µM, first compound 10 µM
# [19] = second compound 1 µM, first compound 0.316 µM
# [20] = second compound 1 µM, first compound 1 µM
# [21] = second compound 1 µM, first compound 3.16 µM
# [22] = second compound 1 µM, first compound 10 µM
# [23] = second compound 3.16 µM, first compound 0.316 µM
# [24] = second compound 3.16 µM, first compound 1 µM
# [25] = second compound 3.16 µM, first compound 3.16 µM
# [26] = second compound 3.16 µM, first compound 10 µM
# [27] = second compound 10 µM, first compound 0.316 µM
# [28] = second compound 10 µM, first compound 1 µM
# [29] = second compound 10 µM, first compound 3.16 µM
# [30] = second compound 10 µM, first compound 10 µM
# 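Also: spheroids exposed to agents for seven days before reading.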
# 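For viability, T/C in this document: 100% = DMSO vehicle wells so lower means fewer viable cells.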
structure (smiles),measurement,setting,value
CC(C)n1nc(-c2ccc3oc(N)nc3c2)c2c(N)ncnc21 + C=CC(=O)N1CCN(c2nc(=O)n(-c3c(C)ccnc3C(C)C)c3nc(-c4c(O)cccc4F)c(F)cc23)C(C)C1,pIC50,second compound 0.1 µM,9.24
same,pIC50,second compound 0.316 µM,> 9.50
same,pIC50,second compound 1 µM,> 9.50
same,pIC50,second compound 3.16 µM,> 9.50
same,pIC50,second compound 10 µM,> 9.50
same,"viability, T/C","second compound 0.1 µM, first compound 0.000316 µM",57.6%
same,"viability, T/C","second compound 0.1 µM, first compound 0.001 µM",40.7%
same,"viability, T/C","second compound 0.1 µM, first compound 0.00316 µM",34.6%
same,"viability, T/C","second compound 0.1 µM, first compound 0.01 µM",17.6%
same,"viability, T/C",[1],8.67%
same,"viability, T/C",[2],5.6%
same,"viability, T/C","second compound 0.316 µM, first compound 0.000316 µM",45.4%
same,"viability, T/C","second compound 0.316 µM, first compound 0.001 µM",41.2%
same,"viability, T/C","second compound 0.316 µM, first compound 0.00316 µM",26.1%
same,"viability, T/C","second compound 0.316 µM, first compound 0.01 µM",14.3%
same,"viability, T/C",[3],9.71%
same,"viability, T/C",[4],5.39%
same,"viability, T/C","second compound 1 µM, first compound 0.000316 µM",49.5%
same,"viability, T/C","second compound 1 µM, first compound 0.001 µM",38%
same,"viability, T/C","second compound 1 µM, first compound 0.00316 µM",23.5%
same,"viability, T/C","second compound 1 µM, first compound 0.01 µM",14.4%
same,"viability, T/C",[5],7.05%
same,"viability, T/C",[6],5.38%
same,"viability, T/C","second compound 3.16 µM, first compound 0.000316 µM",42.1%
same,"viability, T/C","second compound 3.16 µM, first compound 0.001 µM",33.2%
same,"viability, T/C","second compound 3.16 µM, first compound 0.00316 µM",21.5%
same,"viability, T/C","second compound 3.16 µM, first compound 0.01 µM",13.9%
same,"viability, T/C",[7],6.92%
same,"viability, T/C",[8],6.19%
same,"viability, T/C","second compound 10 µM, first compound 0.000316 µM",31.1%
same,"viability, T/C","second compound 10 µM, first compound 0.001 µM",25.3%
same,"viability, T/C","second compound 10 µM, first compound 0.00316 µM",19.1%
same,"viability, T/C","second compound 10 µM, first compound 0.01 µM",8.99%
same,"viability, T/C",[9],5.88%
same,"viability, T/C",[10],5.69%
CC(C)NCC(C(=O)N1CCN(c2ncnc3c2C(C)CC3O)CC1)c1ccc(Cl)cc1 (configuration not stated),"viability, T/C",compound 0.0316 µM,97.8% [middle of 5 runs]
same,"viability, T/C",compound 0.1 µM,77.2% [middle of 5 runs]
same,"viability, T/C",compound 0.316 µM,63.1% [middle of 5 runs]
same,"viability, T/C",compound 1 µM,48.3% [middle of 5 runs]
same,"viability, T/C",compound 3.16 µM,37.9% [middle of 5 runs]
same,"viability, T/C",compound 10 µM,25.4% [middle of 5 runs]
same,IC50,curve of compound,982 nM [middle of 5 runs]
CC(C)NCC(C(=O)N1CCN(c2ncnc3c2C(C)CC3O)CC1)c1ccc(Cl)cc1 (configuration not stated) + CNCc1ccccc1-c1csc(C(C)Nc2nc(C)nc3cc(OC)c(OC)cc23)c1,pIC50,second compound 0.1 µM,6.67
same,pIC50,second compound 0.316 µM,6.83
same,pIC50,second compound 1 µM,6.94
same,pIC50,second compound 3.16 µM,> 7.50
same,pIC50,second compound 10 µM,> 7.50
same,"viability, T/C",[1],77.9%
same,"viability, T/C",[2],55.6%
same,"viability, T/C",[11],45%
same,"viability, T/C",[12],34.7%
same,"viability, T/C",[13],26.4%
same,"viability, T/C",[14],15%
same,"viability, T/C",[3],63.6%
same,"viability, T/C",[4],55.1%
same,"viability, T/C",[15],40.9%
same,"viability, T/C",[16],27.5%
same,"viability, T/C",[17],22.1%
same,"viability, T/C",[18],14.6%
same,"viability, T/C",[5],66.3%
same,"viability, T/C",[6],52.5%
same,"viability, T/C",[19],36.1%
same,"viability, T/C",[20],24.6%
same,"viability, T/C",[21],18.2%
same,"viability, T/C",[22],11.5%
same,"viability, T/C",[7],0.12%
same,"viability, T/C",[8],0.09%
same,"viability, T/C",[23],0.09%
same,"viability, T/C",[24],0.07%
same,"viability, T/C",[25],0.3%
same,"viability, T/C",[26],0.16%
same,"viability, T/C",[9],0.23%
same,"viability, T/C",[10],0.44%
same,"viability, T/C",[27],0.16%
same,"viability, T/C",[28],0.16%
same,"viability, T/C",[29],0.16%
same,"viability, T/C",[30],0.23%
CCNC(=O)CC1N=C(c2ccc(Cl)cc2)c2cc(OC)ccc2-n2c(C)nnc21 (configuration not stated) + C=CC(=O)N1CCN(c2nc(=O)n(-c3c(C)ccnc3C(C)C)c3nc(-c4c(O)cccc4F)c(F)cc23)C(C)C1,pIC50,second compound 0.1 µM,6.60
same,pIC50,second compound 0.316 µM,6.99
same,pIC50,second compound 1 µM,6.81
same,pIC50,second compound 3.16 µM,6.93
same,pIC50,second compound 10 µM,> 7.50
same,"viability, T/C",[1],58.2%
same,"viability, T/C",[2],58.7%
same,"viability, T/C",[11],45.8%
same,"viability, T/C",[12],40.4%
same,"viability, T/C",[13],29.7%
same,"viability, T/C",[14],24.3%
same,"viability, T/C",[3],55.6%
same,"viability, T/C",[4],50.7%
same,"viability, T/C",[15],45.7%
same,"viability, T/C",[16],33.5%
same,"viability, T/C",[17],28.6%
same,"viability, T/C",[18],22.3%
same,"viability, T/C",[5],60.4%
same,"viability, T/C",[6],51.2%
same,"viability, T/C",[19],51.1%
same,"viability, T/C",[20],33.7%
same,"viability, T/C",[21],26.2%
same,"viability, T/C",[22],22.7%
same,"viability, T/C",[7],55.4%
same,"viability, T/C",[8],48.9%
same,"viability, T/C",[23],46.3%
same,"viability, T/C",[24],35.8%
same,"viability, T/C",[25],26.5%
same,"viability, T/C",[26],19.1%
same,"viability, T/C",[9],41.6%
same,"viability, T/C",[10],43.3%
same,"viability, T/C",[27],33.2%
same,"viability, T/C",[28],26.9%
same,"viability, T/C",[29],23.5%
same,"viability, T/C",[30],17.9%
